Source: EP3318253B1, “COMPOSITIONS COMPRISING WNT INHIBITORS FOR TREATING CANCER” (Schmidt-Wolf, Ingo, priority 2010, dated 2012)
Read-outs that look alike come from different tables or passages of the source.

Tests used:
PBMC = test: Cell viability by DiOC6 staining, flow cytometry (normal control cells); assay type: cell-based, human; conditions: for IC50: Homo sapiens, 72 h, PBMC from healthy individuals, three days; for effect on normal PBMC and PBL: result in words
Description: PBMCs were isolated from blood of healthy donors by Ficoll-Hypaque density gradient centrifugation. Blood from buffy coats was mixed 1:2 with PBS/1% BSA (both PAA, Cölbe, Germany) and used for a ficoll gradient (LymphoPrep, PAA, Cölbe, Germany). After the centrifugation at 800 g for 30 minutes, the leukocyte layer was removed and transferred to new tubes. Subsequently, these cells were washed 3 times with PBS/1%BSA and re-suspended in fresh medium, consisting of RPMI medium (PAA, Cölbe, Germany) with 10% fetal calf serum (Invitrogen, Karlsruhe, Germany), 2.5% hepes buffer solution (PAA, Cölbe, Germany), and 1% penicillin/streptomycin (PAA, Cölbe, Germany).
(§1) Experiments were performed as reported recently.

PBL [1] = test: as above; conditions: for IC50: Homo sapiens, PBL, 72 h; for effect on normal PBL: result in words
Description: (§4) Peripheral blood mononuclear cells (PBMC) and PBL were isolated from blood samples of healthy volunteers by Ficoll density gradient centrifugation (Lymphoprep, Nycomed, Oslo, Norway).
(§5) 1x10^5 Cells were cultured in 3 ml Medium in 6-well plates. […] The apoptosis assay was performed with 3'3-dihexyloxacarbocyanine iodide (DiOC6) detecting mitochondrial membrane potential in viable cells, and propidium iodide (PI) which binds to DNA in necrotic cells, measured by a fluorescence-activated cell sorter (FACS).
(§6) For FACS analysis, 500µl staining solution containing 80 nM DiOC6 in FACS buffer, consisting of deficient RPMI-medium with 0.5% bovine serum albumin (BSA), was mixed with equal volumes of the cell sample in a glass tube and incubated at 37°C for 15 min. After a washing step with PBS/BSA 1% the cells were re-suspended in 500µl PBS/BSA 1%. After addition of 5µl PI-solution (100µg/ml) the cells were analyzed by FACS. Using this assay, viable cells reveal high fluorescence intensity for DiOC6 and a low expression for PI. In contrary, apoptotic cells show a low expression for DiOC6 and also a low expression for PI (2). Finally, necrotic cells show a low expression for DiOC6 and a high expression for PI.
(§7) PBMC and PBL derived from healthy individuals were used as normal controls. 1x10^5 cells were cultured with each compound using various concentrations for three days. Then cell viability was measured by DIOC6 staining by flow cytometry. Results represent data from two to four separate experiments each.
(§8) PBMC and PBL derived from healthy individuals were used as normal controls. 1x10^5 cells were cultured with each compound using various concentrations for three days. Then cell viability was measured by DIOC6 staining by flow cytometry. Results represent data from 2 to 4 separate experiments each.
(§9) 1x10^5 Cells were cultured in 3 ml Medium in 6-well plates. […] The apoptosis assay was performed with 3' 3-dihexyloxacarbocyanine iodide (DiOC6) detecting mitochondrial membrane potential in viable cells, and propidium iodide (PI) which binds to DNA in necrotic cells, measured by a fluorescence-activated cell sorter (FACS).
(§10) PBL derived from healthy individuals were used as controls. 1x10^5 cells were cultured with each compound using various concentrations for three days. Then cell viability was measured by DIOC6 staining by flow cytometry and IC 50 rates were determined. Results represent data from 2 to 4 separate experiments each.
(§11) PBMC and PBL derived from healthy individuals were used as controls. 1x10^5 cells were cultured with each compound using various concentrations for three days.

OPM-2 myeloma cells = test: Cell viability by DiOC6 staining, flow cytometry; assay type: cell-based, human; conditions: for IC50: Homo sapiens, 72 h, OPM-2, 1x10^5 cells cultured three days, various concentrations
Description: as §1
(§2) PBL derived from healthy individuals were used as controls. […] ND, not done.

OCI-Ly8 LAM53 = test: Cell viability by DiOC6 staining, flow cytometry; assay type: cell-based; conditions: Homo sapiens, 72 h; OCI-Ly8 LAM53; 1x10^5 cells cultured three days, various concentrations
Description: as §1, §2

RPMI 8226 = test: Cell viability by DiOC6 staining, flow cytometry; assay type: cell-based; conditions: Homo sapiens, 72 h, 1x10^5 cells cultured three days, various concentrations
Description: as §1, §2

Raji = test: Cell viability by DiOC6 staining, flow cytometry; assay type: cell-based; conditions: Homo sapiens, 72 h, 1x10^5 cells cultured three days, various concentrations
Description: as §1, §2

U266 = test: Cell viability by DiOC6 staining, flow cytometry; assay type: cell-based; conditions: Homo sapiens, U-266, 72 h, 1x10^5 cells cultured three days, various concentrations
Description: as §1, §2

SU-DHL 4 = test: Cell viability by DiOC6 staining, flow cytometry; assay type: cell-based; conditions: Homo sapiens, 72 h; SU-DHL 4; 1x10^5 cells cultured three days, various concentrations
Description: as §1, §2

lymphoma cell lines = test: Cell viability by DiOC6 staining in lymphoma cell lines; assay type: cell-based, human; conditions: result in words
Description: as §1, §2

[2] = tested on: OPM-2, U266 and RPMI 8226 cells; test: Cell viability by DiOC6 staining in myeloma cell lines (mean IC50, combinations); assay type: cell-based, human; conditions: for IC50: Homo sapiens, mean of the IC50 results in OPM-2, U266 and RPMI 8226 cells; for viability of myeloma cell lines in vitro: result in words
Description: A mean IC50 value in myeloma cells was determined using the mean of the IC50 results determined in OPM-2, U266 and RPMI 8226 cells.
(§3) • Figure 1. […] Data are shown as mean ± SD. • Figure 2. […] Data are shown as mean ± SD. • Figure 3. […] (A) Flow cytometric results. […] Finally, ECL reagent was utilized for detection. • Figure 4C. […] Finally, ECL reagent was utilized for detection. • Figure 5. Effect of EA on viability of myeloma primary cells. […] Results represent data from two separate experiments. Data are shown as mean. • Figure 6. […] (A) Tumor growth and (B) overall survival were measured. Six animals were assayed per group.
Experiments were performed as reported recently. […]

PBL [3] = tested on: PBL
Description: as §4, §5, §6, §7, §8, §9, §10, §11

Daudi and Raji cells = test: Cell viability in combination experiments, lymphoma cells; assay type: cell-based, human; conditions: single drug or combination; data not shown
MPC11 myeloma cells = conditions: gavage, daily dosage 450 µg per animal; for overall survival time: compared to the control group; for animals in which solid tumor nodules formed: treatment group of 6
Description: All animal experiments were done at least in duplicate with groups of 6 BALB/c mice (Charles River, Sulzfeld, Germany). 5x10^5 MCP11 murine myeloma cells were injected per mouse subcutaneously into Balb/c mice. […] Overall survival and tumor growth were measured. Tumor volume was calculated as follows: volume = length x width^2 x 0,52. Animals were killed when tumor volume reached 2000 mm^3.
• Figure 1. […] 1x10^5 cells were cultured with different compounds for three days. The concentration of thalidomide was U266 160µM for U266, RPMI 20µM for RPMI, and OPM 40µM for OPM cells. Then cell viability was measured by DIOC6 staining in flow cytometry. Results represent data from three, two and five separate experiments, respectively. Separate U266 n=3, RPMI n=2, OPM n=5 experiments. Data are shown as mean ± SD. • Figure 2. […] 1x10^5 OPM cells were cultured with the different compounds for three days. The concentration of lenalidomide was 12µM for OPM and 80µM for RPMI cells. Then cell viability was measured by DIOC6 staining in flow cytometry. Results represent data from eight and five OPM n=8, RPMI n=5 separate experiments, respectively. Data are shown as mean ± SD. • Figure 3. […] (A) Flow cytometric results. […] Western Blot analysis for the detection of β-catenin in myeloma cell lines under normal conditions. The myeloma cell lines RPMI 8226, KMS-18 and U266 were analyzed according to their β-catenin expression. • Figure 4B. […] As primary antibodies purified mouse anti-β-catenin and β-actin were used at a dilution of 1:1000 and as secondary antibody served goat anti-mouse IgG-HRP at a dilution of 1:5000. Finally, ECL reagent was utilized for detection. • Figure 4C. […] As primary antibodies Purified mouse anti-β-catenin and β-actin were used at a dilution of 1:1000 and as secondary antibody served goat anti-mouse IgG-HRP at a dilution of 1:5000. Finally, ECL reagent was utilized for detection. • Figure 5. […] Results represent data from two separate experiments. Data are shown as mean. • Figure 6. […] BALB/c mice were injected with 5x10^5 MPC11 myeloma cells subcutaneously. (A) Tumor growth and (B) overall survival were measured. Six animals were assayed per group.
All animal experiments were done at least in duplicate with groups of 6 BALB/c mice (Charles River, Sulzfeld, Germany). 5x10^5 MCP11 murine myeloma cells were injected per mouse subcutaneously into Balb/c mice. Mice were treated orally with 450µg/day CIC and 750 µg lenalidomide/day, respectively. Overall survival and tumor growth were measured. Tumor volume was calculated as follows: volume = length x width^2 x 0,52. Animals were killed when tumor volume reached 2000 mm^3.
• Figure 7. […] 1x10^5 cells were cultured with different compounds for three days. The concentration of thalidomide was U266 160µM for U266, RPMI 20µM for RPMI, and OPM 40µM for OPM cells. Then cell viability was measured by DIOC6 staining in flow cytometry. Results represent data from three, two and five separate experiments, respectively. Separate U266 n=3, RPMI n=2, OPM n=5 experiments. Data are shown as mean ± SD. • Figure 8. […] 1x10^5 OPM cells were cultured with the different compounds for three days. The concentration of lenalidomide was 12µM for OPM and 80µM for RPMI cells. Then cell viability was measured by DIOC6 staining in flow cytometry. Results represent data from eight and five OPM n=8, RPMI n=5 separate experiments, respectively. Data are shown as mean ± SD. • Figure 9. […] (A) Flow cytometric results. (B) We analyzed the effect of CIC on the Wnt/beta catenin pathway by Western blot. • Figure 10A. Western Blot analysis for the detection of β-catenin in myeloma cell lines under normal conditions. The myeloma cell lines RPMI 8226, KMS-18 and U266 were analyzed according to their β-catenin expression. • Figure 10B.

MPC 11 = test: Cell viability by DiOC6 staining, flow cytometry; assay type: cell-based; conditions: Mus musculus, 72 h; MPC 11 (murine); three days
Description: Then cell viability was measured by DIOC6 staining in flow cytometry. […] Then cell viability was measured by DIOC6 staining in flow cytometry. Results represent data from two separate experiments. […] Six animals were used in each group. […] Six animals were used in each group.

[4] = tested on: primary myeloma cells derived from bone marrow from patients with multiple myeloma; test: Viability of myeloma primary cells from bone marrow; assay type: cell-based, human; conditions: incubated three days; preliminary data
Description: Bone marrow samples from patients with myeloma were taken after informed consent, single cell suspensions generated and cells ficolled. Cells were incubated with or without EA for three days and measured for viability.
as §3
Bone marrow samples from patients with myeloma were taken after informed consent, single cell suspensions generated and cells ficolled. Cells were incubated with or without CIC for three days and measured for viability.
Bone marrow samples from patients with myeloma were taken after informed consent, single cell suspensions generated and cells ficolled. Cells were incubated with or without GF for three days and measured for viability.

KMS18 = test: Cell viability by DiOC6 staining, flow cytometry; assay type: cell-based; conditions: Homo sapiens, 72 h, three days
Description: as §2

IC50 (OPM-2 myeloma cells) [µM]	Compound	IC50 (PBMC) [µM]	effect on normal PBMC and PBL (PBMC)	IC50 (PBL [1]) [µM]	effect on normal PBL (PBL [1])	IC50 (OCI-Ly8 LAM53) [µM]	IC50 (RPMI 8226) [µM]	IC50 (Raji) [µM]	IC50 (U266) [µM]	IC50 (SU-DHL 4) [µM]	viability of lymphoma cell lines in vitro (lymphoma cell lines)	IC50 [2] [µM]	overall survival time (MPC11 myeloma cells)	animals in which solid tumor nodules formed (MPC11 myeloma cells)	IC50 (MPC 11) [µM]	growth of primary myeloma cells [4]	viability of myeloma cell lines in vitro [2]	further results
13	Nc1cccc2c1CN(C1CCC(=O)NC1=O)C2=O (racemic) [lenalidomide, (RS)-3-(4-amino-1-oxo-3H-isoindol-2-yl)piperidine-2,6-dione]	> 400	marginal	> 200	marginal	> 1000	2	> 1000	34	> 1000	no effect	16.3						viability of OPM-2 and RPMI-8226 myeloma cells ([2]; lenalidomide 12µM for OPM, 80µM for RPMI, three days): significant decrease in viability
53	O=C1CCC(N2C(=O)c3ccccc3C2=O)C(=O)N1 (racemic) [thalidomide, (RS)-2-(2,6-dioxopiperidin-3-yl)-1H-isoindole-1,3(2H)-dione]	> 400	no effect	> 400		> 400	> 400	> 400	300	> 400	no effect	> 251						effect on normal PBL (PBL [3]): no effect; viability of OPM-2, U-266 and RPMI-8226 myeloma cells ([2]; thalidomide 160µM for U266, 20µM for RPMI, 40µM for OPM, three days): significant decrease in viability
	CC(C)C[C@H](NC(=O)[C@H](Cc1ccccc1)NC(=O)c1cnccn1)B(O)O [bortezomib]																	viability of OPM-2 myeloma cells (OPM-2 myeloma cells; bortezomib alone or in combination, data not shown): significant decrease in viability
	COc1cccc2c1C(=O)c1c(O)c3c(c(O)c1C2=O)C[C@@](O)(C(=O)CO)C[C@@H]3O[C@H]1C[C@H](N)[C@H](O)[C@H](C)O1 [doxorubicin]																	viability of Daudi and Raji cells (Daudi and Raji cells): significant decrease in viability
	COC1=CC(=O)C[C@@H](C)[C@]12Oc1c(Cl)c(OC)cc(OC)c1C2=O [griseofulvin, (2S,6'R)-7-chloro-2',4,6-trimethoxy-6'-methyl-3H,4'H-spiro [1-benzofuran-2,1'-cyclohex[2]ene]-3,4'-dione]	180		80		30	26	33	18	22	significantly (p<0.05) decreased	22	significantly (p<0.05) longer	5 of 6	41	inhibits the growth	significantly decreased the viability	

Compound	IC50 (OPM-2 myeloma cells) [µM]	IC50 (PBMC) [µM]	effect on normal PBMC and PBL (PBMC)	IC50 (PBL [1]) [µM]	effect on normal PBL (PBL [1])	IC50 (OCI-Ly8 LAM53) [µM]	IC50 (RPMI 8226) [µM]	IC50 (Raji) [µM]	IC50 (U266) [µM]	IC50 (SU-DHL 4) [µM]	viability of lymphoma cell lines in vitro (lymphoma cell lines)	IC50 [2] [µM]	overall survival time (MPC11 myeloma cells)	animals in which solid tumor nodules formed (MPC11 myeloma cells)	IC50 (MPC 11) [µM]	growth of primary myeloma cells [4]	viability of myeloma cell lines in vitro [2]	further results
Cc1cc(CC(C)CC(C)(C)C)n(O)c(=O)c1 (stereo not shown) [piroctone olamine]	0.7			18	marginal	0.6	0.6	0.6	0.6	0.7	significantly (p<0.05) decreased	0.6	significantly (p<0.05) longer	5 of 6	0.8	inhibits the growth	significantly decreased the viability	IC50 (KMS18): 0.6 µM
